Source: patent US6525091B2, “Substituted diarylureas as stimulators for Fas-mediated apoptosis” (Telik, Inc., priority 2001, dated 2003)

Tests used:
synoviocytes = experiment: Stimulation of Fas-mediated apoptosis with h-HFE7A anti-human Fas antibody, XTT cell viability, stimulation index; type: cell-based; conditions: 10 μM compound with h-HFE7A 1000 ng/mL, synoviocytes from rheumatoid arthritis patients, 16 hours
Text: Anti-human Fas antibody h-HFE7A, humanized antibody was obtained from Sankyo Co., Ltd. This antibody induces apoptosis when cross-linked with secondary antibody in vitro.
Samples of human synovium were obtained from rheumatoid arthritis patients at the time of total knee replacement surgery or synoviectomy. Synovial tissue was minced into small pieces and was digested with collagenase and cultured in Ham's F12 medium supplemented with 10% fetal bovine serum (F10F) in a humidified 5% CO2 atmosphere at 37° C. Adherent cells were considered as synoviocytes and were cultivated in F10 F.
Cell viability was determined with the XTT method described in Cancer Res. 48:4827 (1988). Ninety-six well flat plates were precoated with anti-human IgG. h-HFE7A (1000 ng/mL) and/or 10 μM of a compound of this invention were added and incubated for 2 hours. Synoviocytes were seeded (10,000/well) and incubated for 16 hours. Background wells received culture medium only. XTT (2,3-Bis[2-methoxy-4-nitro-sulfophenyl]-2H-tetrazolium-5-carboxanilide), final concentration 200 μg/mL, and phenazine methosulfate, final concentration 5 μM, were added to each well, and further incubated for 4 hours. The absorbance at 450 nm was measured and cell viability was determined as follows: [formula]
Enhancement of Fas-mediated apoptosis by compounds of this invention was determined by the stimulation index (SI): [formula] […]

hepatocytes = experiment: Fas-dependent apoptosis, FACS analysis of DNA fragmentation (propidium iodide) and annexin V staining; type: cell-based; conditions: at 10 μM
Experimental: Assays for Fas-dependent apoptosis are known in the art. See, for example, Ruiz-Ruiz et al, Cell Death Diff. 271 (1999); and Muller et al., J. Exp. Therap. 188:2033 (1998).
Apoptosis is identified by detection of the DNA fragmentation pattern characteristic of apoptotic cell death. In this Example, apoptosis is detected and measured by FACS® analysis carried out in a FACScan® flow cytometer (Becton Dickinson) using CellQuest software. Quantification of DNA fragmentation is performed by FACS® analysis of propidium iodide-stained nuclei as described in Nicolletti et al., J. Immunol. Methods 139:271-279 (1991). Hepatocytes floating in the culture medium are collected by centrifugation at 200×g. Adherent hepatocytes are harvested-by incubation with 1% trypsin for 1 min. The cells are washed in phosphate-buffered saline (PBS), suspended in hypotonic lysis buffer (0.1% sodium citrate, 0.1% Triton X, and […] propidium iodide) (Sigma) and incubated at 4° C. for 6 hours. Cells are then analyzed for DNA content by flow cytometry.
Early apoptotic changes are identified using annexin V-Fluos (Boehringer Mannheim) which binds to phosphatidylserine molecules (PS) exposed on apoptotic, but not normal, cell membranes (PS is normally restricted to the inner leaflet of the cell membrane bilayer). […] Cells are incubated for 10-15 min and analyzed on a flow cytometer using CellQuest software. […]

**Q.** Which “Enhancement of Fas-mediated apoptosis, stimulation index (SI)” value (synoviocytes) does the source give for `O=C(Nc1ccc(Br)c([N+](=O)[O-])c1)Nc1ccc(Br)c([N+](=O)[O-])c1` [Compound 3] here?
**A.** positive (An SI over 2.0 was considered positive)

**Q.** What about the “stimulation of Fas-dependent apoptosis” value (hepatocytes) of the same compound?
**A.** stimulation of Fas-dependent apoptosis
